Source: ChEMBL document CHEMBL5291721, “A preclinical secondary pharmacology resource illuminates target-adverse drug reaction associations of marketed drugs” (Nat Commun, 2023)

Columns and labels:
[1] = biological target: Epidermal growth factor receptor (Homo sapiens, UniProt P00533); assay type: functional
[2] = biological target: Receptor tyrosine-protein kinase erbB-2 (Homo sapiens, UniProt P04626); assay type: functional
[3] = biological target: T1, Thromboxane A2 receptor (Homo sapiens, UniProt P21731); assay type: functional, cell-based
T1 sequence (P21731 whole entry): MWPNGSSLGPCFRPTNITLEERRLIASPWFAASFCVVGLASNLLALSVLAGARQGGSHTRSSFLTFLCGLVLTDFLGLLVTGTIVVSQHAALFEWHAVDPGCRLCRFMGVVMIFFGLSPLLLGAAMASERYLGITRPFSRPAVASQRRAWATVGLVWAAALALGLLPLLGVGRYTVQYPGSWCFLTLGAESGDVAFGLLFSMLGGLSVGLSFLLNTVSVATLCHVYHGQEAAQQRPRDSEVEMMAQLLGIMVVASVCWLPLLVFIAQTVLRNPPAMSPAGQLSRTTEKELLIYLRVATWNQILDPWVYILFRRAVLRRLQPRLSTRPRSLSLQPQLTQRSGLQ

[4] = biological target: T1, Thromboxane A2 receptor; assay type: functional
[5] = biological target: T2, Androgen receptor (Rattus norvegicus, UniProt P15207); assay type: functional
T2 sequence (P15207 whole entry): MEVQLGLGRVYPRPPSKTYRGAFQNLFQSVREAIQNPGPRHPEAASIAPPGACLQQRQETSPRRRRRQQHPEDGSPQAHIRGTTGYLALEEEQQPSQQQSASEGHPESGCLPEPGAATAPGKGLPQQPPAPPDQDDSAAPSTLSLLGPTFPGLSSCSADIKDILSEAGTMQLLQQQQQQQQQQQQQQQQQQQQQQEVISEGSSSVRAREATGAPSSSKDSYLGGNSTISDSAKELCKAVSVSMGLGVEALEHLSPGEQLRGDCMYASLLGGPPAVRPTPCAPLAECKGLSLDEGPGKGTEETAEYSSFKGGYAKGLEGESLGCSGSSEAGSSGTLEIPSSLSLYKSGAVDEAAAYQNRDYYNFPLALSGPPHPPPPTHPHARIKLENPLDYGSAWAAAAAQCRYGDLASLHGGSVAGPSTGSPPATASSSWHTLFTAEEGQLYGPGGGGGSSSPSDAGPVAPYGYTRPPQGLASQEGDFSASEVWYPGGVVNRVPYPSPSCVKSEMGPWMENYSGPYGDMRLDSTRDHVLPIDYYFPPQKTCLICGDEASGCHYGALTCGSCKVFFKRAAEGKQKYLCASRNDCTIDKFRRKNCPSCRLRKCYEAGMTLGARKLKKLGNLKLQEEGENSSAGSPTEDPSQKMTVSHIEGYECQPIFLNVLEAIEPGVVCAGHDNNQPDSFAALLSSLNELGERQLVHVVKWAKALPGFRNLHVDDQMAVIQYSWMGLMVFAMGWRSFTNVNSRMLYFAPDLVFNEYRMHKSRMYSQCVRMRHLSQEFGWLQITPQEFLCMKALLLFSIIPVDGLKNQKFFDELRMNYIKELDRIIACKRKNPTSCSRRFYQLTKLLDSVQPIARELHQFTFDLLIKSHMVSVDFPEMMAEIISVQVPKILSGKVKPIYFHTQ

[6] = biological target: Cannabinoid receptor 1 (Homo sapiens, UniProt P21554); assay type: functional
[7] = biological target: T3, Alpha-2A adrenergic receptor (Homo sapiens, UniProt P08913)
T3 sequence (P08913 whole entry): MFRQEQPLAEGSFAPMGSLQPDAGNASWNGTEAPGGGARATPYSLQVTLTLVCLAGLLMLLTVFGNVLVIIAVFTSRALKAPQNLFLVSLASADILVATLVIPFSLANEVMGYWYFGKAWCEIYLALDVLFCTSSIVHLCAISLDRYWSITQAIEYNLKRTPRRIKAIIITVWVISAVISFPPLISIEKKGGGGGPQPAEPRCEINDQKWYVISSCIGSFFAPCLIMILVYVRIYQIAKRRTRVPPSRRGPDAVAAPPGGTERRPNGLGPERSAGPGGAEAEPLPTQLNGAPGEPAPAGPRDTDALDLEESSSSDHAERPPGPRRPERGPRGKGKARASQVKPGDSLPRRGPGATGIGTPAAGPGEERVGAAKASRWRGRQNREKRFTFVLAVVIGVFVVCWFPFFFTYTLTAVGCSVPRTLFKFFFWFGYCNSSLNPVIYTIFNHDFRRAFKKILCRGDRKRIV

[8] = biological target: 5-hydroxytryptamine receptor 6 (Homo sapiens, UniProt P50406)
[9] = biological target: T4, D(4) dopamine receptor (Homo sapiens, UniProt P21917)
T4 sequence (P21917 whole entry): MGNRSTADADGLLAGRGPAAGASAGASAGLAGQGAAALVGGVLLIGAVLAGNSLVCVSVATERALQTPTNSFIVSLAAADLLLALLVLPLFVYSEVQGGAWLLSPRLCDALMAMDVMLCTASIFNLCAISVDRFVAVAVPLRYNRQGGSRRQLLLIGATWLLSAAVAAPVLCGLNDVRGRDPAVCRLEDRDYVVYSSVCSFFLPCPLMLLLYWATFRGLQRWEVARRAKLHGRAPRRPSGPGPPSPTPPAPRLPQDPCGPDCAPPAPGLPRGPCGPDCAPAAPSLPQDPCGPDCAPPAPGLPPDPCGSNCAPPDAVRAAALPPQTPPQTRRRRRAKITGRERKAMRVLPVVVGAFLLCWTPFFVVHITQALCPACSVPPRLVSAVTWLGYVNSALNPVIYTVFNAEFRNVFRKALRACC

[10] = biological target: T5, Alpha-1A adrenergic receptor (Homo sapiens, UniProt P35348)
T5 sequence (P35348 whole entry): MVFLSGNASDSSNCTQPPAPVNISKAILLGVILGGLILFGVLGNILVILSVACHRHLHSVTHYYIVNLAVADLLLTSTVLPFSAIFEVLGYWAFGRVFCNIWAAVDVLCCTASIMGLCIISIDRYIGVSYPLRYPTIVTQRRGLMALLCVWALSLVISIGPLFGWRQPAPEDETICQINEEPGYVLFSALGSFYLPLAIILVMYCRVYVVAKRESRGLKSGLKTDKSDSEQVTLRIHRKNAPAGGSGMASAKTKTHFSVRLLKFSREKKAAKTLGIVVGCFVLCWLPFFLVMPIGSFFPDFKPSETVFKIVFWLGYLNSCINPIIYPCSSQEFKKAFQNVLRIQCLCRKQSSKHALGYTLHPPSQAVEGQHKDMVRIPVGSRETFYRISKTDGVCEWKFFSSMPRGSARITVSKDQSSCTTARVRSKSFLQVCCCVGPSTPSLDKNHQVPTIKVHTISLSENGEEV

[11] = biological target: Voltage-dependent L-type calcium channel subunit alpha-1C (Homo sapiens, UniProt Q13936); assay type: functional, cell-based
Further: assay procedure not described here.

Chain of Receptor tyrosine-protein kinase erbB-2 (P04626 whole entry): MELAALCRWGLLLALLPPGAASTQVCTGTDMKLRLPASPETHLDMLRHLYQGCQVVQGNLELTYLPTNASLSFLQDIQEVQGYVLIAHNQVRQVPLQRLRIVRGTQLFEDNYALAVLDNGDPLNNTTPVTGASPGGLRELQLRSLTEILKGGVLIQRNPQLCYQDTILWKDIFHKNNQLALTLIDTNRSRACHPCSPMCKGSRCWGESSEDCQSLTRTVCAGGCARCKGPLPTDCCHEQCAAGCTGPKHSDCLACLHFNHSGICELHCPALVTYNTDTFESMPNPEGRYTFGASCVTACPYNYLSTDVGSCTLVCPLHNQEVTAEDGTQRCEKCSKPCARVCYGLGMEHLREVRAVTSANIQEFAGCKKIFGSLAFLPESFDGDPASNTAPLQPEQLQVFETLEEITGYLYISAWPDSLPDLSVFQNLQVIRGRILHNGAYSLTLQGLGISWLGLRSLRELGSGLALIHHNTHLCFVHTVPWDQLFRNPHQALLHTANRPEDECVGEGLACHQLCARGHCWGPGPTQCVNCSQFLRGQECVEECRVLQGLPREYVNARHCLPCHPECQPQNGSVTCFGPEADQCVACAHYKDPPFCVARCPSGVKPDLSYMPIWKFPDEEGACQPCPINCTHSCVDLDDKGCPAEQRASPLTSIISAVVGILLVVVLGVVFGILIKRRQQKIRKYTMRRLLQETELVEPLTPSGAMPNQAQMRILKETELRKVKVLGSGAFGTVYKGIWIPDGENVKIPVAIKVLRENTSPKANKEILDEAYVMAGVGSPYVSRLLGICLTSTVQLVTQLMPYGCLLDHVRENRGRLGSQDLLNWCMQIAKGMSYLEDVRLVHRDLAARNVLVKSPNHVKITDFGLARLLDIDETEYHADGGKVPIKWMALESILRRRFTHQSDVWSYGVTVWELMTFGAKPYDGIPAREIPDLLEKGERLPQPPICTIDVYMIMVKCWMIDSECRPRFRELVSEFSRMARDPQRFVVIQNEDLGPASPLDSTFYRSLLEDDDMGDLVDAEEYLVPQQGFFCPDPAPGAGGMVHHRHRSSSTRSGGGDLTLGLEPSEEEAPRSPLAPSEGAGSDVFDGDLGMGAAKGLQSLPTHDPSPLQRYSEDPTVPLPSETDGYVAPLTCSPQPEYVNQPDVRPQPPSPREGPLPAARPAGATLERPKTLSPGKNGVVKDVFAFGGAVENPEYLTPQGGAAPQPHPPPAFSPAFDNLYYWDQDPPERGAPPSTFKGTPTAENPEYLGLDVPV
Chain of Voltage-dependent L-type calcium channel subunit alpha-1C (Q13936 whole entry): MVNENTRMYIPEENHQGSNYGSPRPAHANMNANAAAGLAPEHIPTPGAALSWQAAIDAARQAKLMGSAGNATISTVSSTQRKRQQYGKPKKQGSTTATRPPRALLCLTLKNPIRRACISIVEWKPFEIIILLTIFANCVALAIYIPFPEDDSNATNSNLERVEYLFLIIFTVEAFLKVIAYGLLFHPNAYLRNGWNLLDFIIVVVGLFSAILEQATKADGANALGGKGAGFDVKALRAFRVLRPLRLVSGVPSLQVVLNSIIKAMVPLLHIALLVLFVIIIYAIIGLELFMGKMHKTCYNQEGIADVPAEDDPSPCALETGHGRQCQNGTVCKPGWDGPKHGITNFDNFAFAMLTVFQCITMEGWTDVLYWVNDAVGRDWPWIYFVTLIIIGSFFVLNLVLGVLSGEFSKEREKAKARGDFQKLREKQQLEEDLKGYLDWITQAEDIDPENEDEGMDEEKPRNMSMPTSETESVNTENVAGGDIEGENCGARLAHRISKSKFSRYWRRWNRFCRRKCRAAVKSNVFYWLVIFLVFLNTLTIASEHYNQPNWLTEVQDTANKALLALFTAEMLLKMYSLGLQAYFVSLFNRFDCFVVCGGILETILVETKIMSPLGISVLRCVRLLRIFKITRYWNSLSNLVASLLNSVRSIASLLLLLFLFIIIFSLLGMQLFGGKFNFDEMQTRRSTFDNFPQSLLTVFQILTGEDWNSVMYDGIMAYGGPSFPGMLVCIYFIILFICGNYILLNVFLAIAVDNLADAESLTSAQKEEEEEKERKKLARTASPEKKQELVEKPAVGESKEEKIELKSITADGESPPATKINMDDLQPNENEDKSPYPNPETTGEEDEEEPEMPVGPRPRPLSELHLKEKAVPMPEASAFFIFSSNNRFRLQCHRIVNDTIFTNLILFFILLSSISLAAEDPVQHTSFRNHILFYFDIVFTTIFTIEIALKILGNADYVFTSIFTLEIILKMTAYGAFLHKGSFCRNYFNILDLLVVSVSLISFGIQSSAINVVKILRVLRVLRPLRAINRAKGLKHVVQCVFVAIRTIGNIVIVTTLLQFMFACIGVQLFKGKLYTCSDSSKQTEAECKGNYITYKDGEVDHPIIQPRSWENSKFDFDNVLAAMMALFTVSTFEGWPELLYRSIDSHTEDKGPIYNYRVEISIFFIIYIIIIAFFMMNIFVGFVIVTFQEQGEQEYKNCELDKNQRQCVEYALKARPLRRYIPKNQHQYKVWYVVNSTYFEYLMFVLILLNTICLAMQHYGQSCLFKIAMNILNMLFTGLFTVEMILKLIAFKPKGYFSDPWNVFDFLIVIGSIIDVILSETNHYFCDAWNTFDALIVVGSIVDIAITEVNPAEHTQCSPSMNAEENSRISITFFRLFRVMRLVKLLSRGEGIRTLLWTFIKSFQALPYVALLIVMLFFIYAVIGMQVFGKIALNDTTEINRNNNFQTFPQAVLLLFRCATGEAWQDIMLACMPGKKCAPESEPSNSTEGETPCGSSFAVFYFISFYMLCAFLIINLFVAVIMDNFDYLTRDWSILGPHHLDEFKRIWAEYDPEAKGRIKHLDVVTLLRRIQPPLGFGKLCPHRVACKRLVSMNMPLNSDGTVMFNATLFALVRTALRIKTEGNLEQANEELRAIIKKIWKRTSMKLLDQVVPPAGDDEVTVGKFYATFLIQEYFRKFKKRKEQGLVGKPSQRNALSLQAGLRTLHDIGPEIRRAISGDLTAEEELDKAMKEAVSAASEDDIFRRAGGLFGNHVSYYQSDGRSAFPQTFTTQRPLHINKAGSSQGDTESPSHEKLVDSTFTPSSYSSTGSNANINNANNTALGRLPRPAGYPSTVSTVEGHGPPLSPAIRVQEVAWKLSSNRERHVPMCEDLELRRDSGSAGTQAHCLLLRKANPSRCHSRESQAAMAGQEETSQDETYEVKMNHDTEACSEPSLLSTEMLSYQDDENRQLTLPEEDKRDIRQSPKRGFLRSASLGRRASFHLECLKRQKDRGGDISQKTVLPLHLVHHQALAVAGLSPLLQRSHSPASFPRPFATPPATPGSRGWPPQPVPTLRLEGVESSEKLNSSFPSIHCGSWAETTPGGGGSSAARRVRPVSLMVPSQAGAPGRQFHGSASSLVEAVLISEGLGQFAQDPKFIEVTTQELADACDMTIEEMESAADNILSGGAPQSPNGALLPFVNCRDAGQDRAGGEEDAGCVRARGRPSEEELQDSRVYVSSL
Chain of 5-hydroxytryptamine receptor 6 (P50406 whole entry): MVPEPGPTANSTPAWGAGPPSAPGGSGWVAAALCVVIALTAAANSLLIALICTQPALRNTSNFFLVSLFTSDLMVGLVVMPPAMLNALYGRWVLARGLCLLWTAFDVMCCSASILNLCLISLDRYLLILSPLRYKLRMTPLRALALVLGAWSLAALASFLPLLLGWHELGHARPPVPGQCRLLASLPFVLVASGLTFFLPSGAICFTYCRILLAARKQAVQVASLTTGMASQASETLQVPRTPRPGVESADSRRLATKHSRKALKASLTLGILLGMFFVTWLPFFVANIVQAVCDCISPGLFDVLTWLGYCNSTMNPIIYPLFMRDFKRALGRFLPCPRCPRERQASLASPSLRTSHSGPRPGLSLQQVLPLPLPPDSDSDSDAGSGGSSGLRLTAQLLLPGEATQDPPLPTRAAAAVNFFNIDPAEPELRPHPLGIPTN
Chain of Epidermal growth factor receptor (P00533 whole entry): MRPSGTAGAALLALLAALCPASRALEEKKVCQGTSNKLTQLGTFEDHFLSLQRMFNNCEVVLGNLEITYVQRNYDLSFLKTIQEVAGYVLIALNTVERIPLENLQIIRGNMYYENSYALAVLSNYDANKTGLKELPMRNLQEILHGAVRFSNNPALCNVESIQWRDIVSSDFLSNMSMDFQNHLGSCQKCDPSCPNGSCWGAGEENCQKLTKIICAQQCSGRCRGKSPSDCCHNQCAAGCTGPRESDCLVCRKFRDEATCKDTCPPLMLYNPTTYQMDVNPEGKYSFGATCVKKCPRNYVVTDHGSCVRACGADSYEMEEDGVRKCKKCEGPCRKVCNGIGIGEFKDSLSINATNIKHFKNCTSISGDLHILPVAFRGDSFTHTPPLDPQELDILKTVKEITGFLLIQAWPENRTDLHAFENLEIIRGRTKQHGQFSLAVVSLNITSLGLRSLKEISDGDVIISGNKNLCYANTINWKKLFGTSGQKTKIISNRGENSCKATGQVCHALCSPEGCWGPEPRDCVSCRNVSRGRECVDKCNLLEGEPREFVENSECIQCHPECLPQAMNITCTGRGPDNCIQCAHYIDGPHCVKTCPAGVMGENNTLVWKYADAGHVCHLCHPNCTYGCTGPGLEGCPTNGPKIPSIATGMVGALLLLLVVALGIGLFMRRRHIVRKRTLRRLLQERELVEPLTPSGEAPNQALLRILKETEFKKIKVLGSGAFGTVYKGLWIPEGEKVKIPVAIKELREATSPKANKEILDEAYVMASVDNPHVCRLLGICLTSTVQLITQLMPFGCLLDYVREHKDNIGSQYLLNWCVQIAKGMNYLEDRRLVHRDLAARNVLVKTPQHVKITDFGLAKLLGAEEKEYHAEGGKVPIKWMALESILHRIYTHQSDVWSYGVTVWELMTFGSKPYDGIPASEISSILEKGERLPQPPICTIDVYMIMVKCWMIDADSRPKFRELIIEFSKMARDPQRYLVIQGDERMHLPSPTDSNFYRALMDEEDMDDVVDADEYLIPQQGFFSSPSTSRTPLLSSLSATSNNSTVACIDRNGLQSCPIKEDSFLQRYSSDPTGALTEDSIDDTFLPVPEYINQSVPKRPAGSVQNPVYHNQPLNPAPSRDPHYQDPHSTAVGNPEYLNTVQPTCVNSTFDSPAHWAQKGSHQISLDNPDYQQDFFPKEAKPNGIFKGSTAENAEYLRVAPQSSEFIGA

CC(=N)N1CC[C@H](SC2=C(C(=O)O)N3C(=O)[C@H]([C@@H](C)O)[C@H]3C2)C1
AC50 [1]: > 300 µM
AC50 [2]: > 300 µM
AC50 [3]: > 300 µM
AC50 [4]: > 300 µM

CC1(C)S[C@@H]2[C@H](NC(=O)[C@H](N)c3ccc(O)cc3)C(=O)N2[C@H]1C(=O)O [AMOXICILLIN]
AC50 [5]: > 30 µM
AC50 [6]: > 10 µM
AC50 [7]: > 10 µM
AC50 [8]: > 10 µM
AC50 [9]: > 10 µM
AC50 [10]: > 10 µM

CNCC[C@@H](Oc1ccccc1C)c1ccccc1 [ATOMOXETINE]
AC50 [5]: > 30 µM

CCc1oc2ccccc2c1C(=O)c1cc(Br)c(O)c(Br)c1 [BENZBROMARONE]
AC50 [7]: > 10 µM

C=C(C)[C@@H]1CCC(C)=C[C@H]1c1c(O)cc(CCCCC)cc1O [CANNABIDIOL]
AC50 [1]: > 30 µM
AC50 [2]: > 30 µM

[H]/N=C(\N/C(=N/[H])NCCCCCCNC(=N)NC(=N)Nc1ccc(Cl)cc1)Nc1ccc(Cl)cc1 [CHLORHEXIDINE]
AC50 [7]: > 10 µM

COC(=O)[C@H](c1ccccc1Cl)N1CCc2sccc2C1 [CLOPIDOGREL]
AC50 [6]: > 10 µM
AC50 [7]: > 10 µM
AC50 [8]: > 10 µM
AC50 [9]: > 10 µM
AC50 [10]: > 10 µM

CNCC[C@H](Oc1cccc2ccccc12)c1cccs1 [DULOXETINE]
AC50 [11]: 29 µM

C#Cc1cccc(Nc2ncnc3cc(OCCOC)c(OCCOC)cc23)c1 [ERLOTINIB]
AC50 [3]: > 30 µM
AC50 [4]: > 30 µM

C[C@H]1Oc2cc(cnc2N)-c2c(nn(C)c2C#N)CN(C)C(=O)c2ccc(F)cc21 [LORLATINIB]
AC50 [1]: 2.9 µM
AC50 [2]: > 30 µM
AC50 [3]: > 30 µM
AC50 [4]: > 30 µM

Cc1cnc(NC(=O)C2=C(O)c3ccccc3S(=O)(=O)N2C)s1 [MELOXICAM]
AC50 [6]: > 10 µM
AC50 [7]: > 10 µM
AC50 [8]: > 10 µM
AC50 [9]: > 10 µM
AC50 [10]: > 10 µM

CNCCC=C1c2ccccc2CCc2ccccc21 [NORTRIPTYLINE]
AC50 [8]: 0.256 µM

CN(C)c1cc(CNCC(C)(C)C)c(O)c2c1C[C@H]1C[C@H]3[C@H](N(C)C)C(O)=C(C(N)=O)C(=O)[C@@]3(O)C(O)=C1C2=O [OMADACYCLINE]
AC50 [5]: > 30 µM

COc1ccnc(C[S+]([O-])c2nc3ccc(OC(F)F)cc3[nH]2)c1OC (stereo not given) [PANTOPRAZOLE]
AC50 [7]: > 10 µM
AC50 [9]: > 10 µM
AC50 [10]: > 10 µM

COc1ccc(Cc2nccc3cc(OC)c(OC)cc23)cc1OC [PAPAVERINE]
AC50 [5]: > 30 µM

CNC[C@H](O)c1cccc(O)c1 [PHENYLEPHRINE]
AC50 [6]: > 10 µM
AC50 [8]: > 10 µM
AC50 [9]: > 10 µM

O=C1NC(=O)C(c2ccccc2)(c2ccccc2)N1 [PHENYTOIN]
AC50 [1]: > 30 µM
AC50 [2]: > 30 µM
AC50 [11]: > 50 µM
AC50 [3]: > 30 µM
AC50 [4]: > 30 µM

CC(C)C[C@H](CN)CC(=O)O [PREGABALIN]
AC50 [1]: > 30 µM
AC50 [2]: > 30 µM

NC(=O)c1ncn([C@@H]2O[C@H](CO)[C@@H](O)[C@H]2O)n1 [RIBAVIRIN]
AC50 [11]: > 50 µM

O=C(Nc1c(Cl)cncc1Cl)c1ccc(OC(F)F)c(OCC2CC2)c1 [ROFLUMILAST]
AC50 [5]: > 30 µM
AC50 [11]: > 50 µM

CCCN(CCC)CCc1cccc2c1CC(=O)N2 [ROPINIROLE]
AC50 [1]: > 30 µM
AC50 [2]: > 30 µM
AC50 [7]: 12 µM
AC50 [3]: > 30 µM
AC50 [4]: > 30 µM

CCCN(CCc1cccs1)[C@H]1CCc2c(O)cccc2C1 [ROTIGOTINE]
AC50 [1]: > 30 µM
AC50 [2]: > 30 µM
AC50 [3]: > 30 µM
AC50 [4]: > 30 µM

CC[C@H]1OC(=O)[C@H](C)[C@@H](O[C@H]2C[C@@](C)(OC)[C@@H](O)[C@H](C)O2)[C@H](C)[C@@H](O[C@@H]2O[C@H](C)C[C@H](N(C)C)[C@H]2O)[C@](C)(O)C[C@@H](C)/C(=N\OCOCCOC)[C@H](C)[C@@H](O)[C@]1(C)O [ROXITHROMYCIN]
AC50 [1]: > 30 µM
AC50 [2]: > 30 µM

CC(C)N(CCCCOCC(=O)NS(C)(=O)=O)c1cnc(-c2ccccc2)c(-c2ccccc2)n1 [SELEXIPAG]
AC50 [5]: 17 µM
AC50 [11]: > 50 µM

CC(=O)S[C@@H]1CC2=CC(=O)CC[C@]2(C)[C@H]2CC[C@@]3(C)[C@@H](CC[C@@]34CCC(=O)O4)[C@H]12 [SPIRONOLACTONE]
AC50 [1]: > 30 µM
AC50 [2]: > 30 µM
AC50 [7]: > 10 µM
AC50 [9]: > 10 µM
AC50 [10]: > 10 µM

CCCCNc1ccc(C(=O)OCCN(C)C)cc1 [TETRACAINE]
AC50 [6]: 0.0006 µM
AC50 [7]: > 10 µM
AC50 [8]: > 10 µM
AC50 [9]: 4.14 µM
AC50 [10]: > 10 µM
AC50 [11]: > 30 µM

CC1(C)O[C@@H]2[C@@H](CO[C@@]3(COS(N)(=O)=O)OC(C)(C)O[C@@H]23)O1 [TOPIRAMATE]
AC50 [6]: > 10 µM
AC50 [7]: > 10 µM
AC50 [8]: > 10 µM
AC50 [9]: > 10 µM
AC50 [10]: > 10 µM
